Reference: patent publication US20250325712A1, “TARGETING LIGANDS FOR DISEASE-TARGETED IMAGING AGENTS AND METHODS OF USE THEREFOR” (Curadel Surgical Innovations, Inc., priority 2024, published 2025)

Test: Stability of dyes in 37° C. buffered fetal bovine serum (normalized absorbance and absorbance spectra over time)
Type: in vitro ADME
Details: compared to ZW800-1
Description: The normalized absorbance of ZW800-1 and ZW700-1c in 37° C. buffered FBS, pH 7.4 over time from 0 to 60 hours are shown in FIGS. 2-4.

## CC1(C)C(/C=C/C(=C/C=C2/N(CCC[N+](C)(C)C)c3ccc(S(=O)(=O)[O-])cc3C2(C)C)c2ccc(CCC(=O)[O-])cc2)=[N+](CCC[N+](C)(C)C)c2ccc(S(=O)(=O)[O-])cc21 [ZW700-1c]
37° C. buffered FBS, pH 7.4, 0 to 60 hours
  stability: normalized absorbance over time: extreme stability
Warm serum (37° C. buffered FBS, pH 7.4, 0 to 48 hours)
  stability over time: changes in absorption spectra during metabolism in warm serum: high stability
